What was measured:
Test in all cases: biochemical
Set-up in all cases: DiscoverX kinase panel, active-site competition binding (KINOMEscan type), percent of control at one concentration
Conditions in all cases: competition binding, percent of control
[1] = biological target: T1, BRK (Homo sapiens, UniProt Q13882)
T1 construct: gene PTK6

[2] = biological target: FER (Homo sapiens, UniProt P16591)
[3] = biological target: T2, PAK7 (Homo sapiens, UniProt Q9P286)
T2 construct: gene PAK5

[4] = biological target: ERBB2 (Homo sapiens, UniProt P04626)
[5] = biological target: LRRK2 (Homo sapiens, UniProt Q5S007)
[6] = biological target: CDK4 (Homo sapiens, UniProt P11802)
[7] = biological target: T3, NIM1 (Homo sapiens, UniProt Q8IY84)
T3 construct: gene NIM1K

[8] = biological target: WNK4 (Homo sapiens, UniProt Q96J92)
[9] = biological target: T4, ABL1(Q252H)-phosphorylated (Homo sapiens, UniProt P00519, Q252H)
T4 construct: phosphorylated

[10] = biological target: STK39 (Homo sapiens, UniProt Q9UEW8)
[11] = biological target: FYN (Homo sapiens, UniProt P06241)
[12] = biological target: WNK2 (Homo sapiens, UniProt Q9Y3S1)
[13] = biological target: RAF1 (Homo sapiens, UniProt P04049)
[14] = biological target: EGFR(G719S) (Homo sapiens, UniProt P00533, G719S)
[15] = biological target: T5, RPS6KA5(Kin.Dom.1-N-terminal) (Homo sapiens, UniProt O75582)
T5 construct: Kin.Dom.1-N-terminal

[16] = biological target: MARK4 (Homo sapiens, UniProt Q96L34)
[17] = biological target: DMPK (Homo sapiens, UniProt Q09013)
[18] = biological target: ITK (Homo sapiens, UniProt Q08881)
[19] = biological target: NEK2 (Homo sapiens, UniProt P51955)
[20] = biological target: FLT3(D835Y) (Homo sapiens, UniProt P36888, D835Y)
[21] = biological target: T6, DCAMKL3 (Homo sapiens, UniProt Q9C098)
T6 construct: gene DCLK3
T6 sequence (Q9C098 whole entry): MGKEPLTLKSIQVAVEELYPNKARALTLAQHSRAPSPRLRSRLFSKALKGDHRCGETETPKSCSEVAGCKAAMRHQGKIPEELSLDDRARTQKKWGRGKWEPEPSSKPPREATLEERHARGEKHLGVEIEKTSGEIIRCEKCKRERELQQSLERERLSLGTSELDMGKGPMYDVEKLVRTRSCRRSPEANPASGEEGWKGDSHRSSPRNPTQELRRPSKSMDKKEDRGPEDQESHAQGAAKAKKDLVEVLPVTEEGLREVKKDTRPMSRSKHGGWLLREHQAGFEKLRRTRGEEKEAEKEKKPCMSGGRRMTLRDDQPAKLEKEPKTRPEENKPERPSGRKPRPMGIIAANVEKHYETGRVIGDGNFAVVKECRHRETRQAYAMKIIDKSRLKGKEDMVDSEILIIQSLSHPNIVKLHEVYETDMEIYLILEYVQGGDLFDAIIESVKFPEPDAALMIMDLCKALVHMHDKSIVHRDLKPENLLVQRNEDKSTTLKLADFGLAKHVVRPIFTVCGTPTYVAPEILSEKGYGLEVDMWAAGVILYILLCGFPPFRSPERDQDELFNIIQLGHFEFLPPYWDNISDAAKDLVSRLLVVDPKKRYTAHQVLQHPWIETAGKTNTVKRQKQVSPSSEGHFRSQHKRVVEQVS

T1 sequence (Q13882 whole entry): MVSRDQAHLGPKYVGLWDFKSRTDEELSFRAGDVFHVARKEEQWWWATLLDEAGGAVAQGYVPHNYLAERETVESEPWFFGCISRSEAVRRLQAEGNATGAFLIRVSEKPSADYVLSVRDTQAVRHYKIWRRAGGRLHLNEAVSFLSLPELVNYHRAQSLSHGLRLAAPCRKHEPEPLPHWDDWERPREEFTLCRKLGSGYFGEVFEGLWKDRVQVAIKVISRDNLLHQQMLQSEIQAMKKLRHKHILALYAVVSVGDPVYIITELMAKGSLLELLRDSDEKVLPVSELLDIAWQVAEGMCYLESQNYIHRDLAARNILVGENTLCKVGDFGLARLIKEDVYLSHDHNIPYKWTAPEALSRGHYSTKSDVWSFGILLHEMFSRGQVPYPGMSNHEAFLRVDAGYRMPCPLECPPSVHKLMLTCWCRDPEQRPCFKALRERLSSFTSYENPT
ITK, sequence (Q08881 whole entry): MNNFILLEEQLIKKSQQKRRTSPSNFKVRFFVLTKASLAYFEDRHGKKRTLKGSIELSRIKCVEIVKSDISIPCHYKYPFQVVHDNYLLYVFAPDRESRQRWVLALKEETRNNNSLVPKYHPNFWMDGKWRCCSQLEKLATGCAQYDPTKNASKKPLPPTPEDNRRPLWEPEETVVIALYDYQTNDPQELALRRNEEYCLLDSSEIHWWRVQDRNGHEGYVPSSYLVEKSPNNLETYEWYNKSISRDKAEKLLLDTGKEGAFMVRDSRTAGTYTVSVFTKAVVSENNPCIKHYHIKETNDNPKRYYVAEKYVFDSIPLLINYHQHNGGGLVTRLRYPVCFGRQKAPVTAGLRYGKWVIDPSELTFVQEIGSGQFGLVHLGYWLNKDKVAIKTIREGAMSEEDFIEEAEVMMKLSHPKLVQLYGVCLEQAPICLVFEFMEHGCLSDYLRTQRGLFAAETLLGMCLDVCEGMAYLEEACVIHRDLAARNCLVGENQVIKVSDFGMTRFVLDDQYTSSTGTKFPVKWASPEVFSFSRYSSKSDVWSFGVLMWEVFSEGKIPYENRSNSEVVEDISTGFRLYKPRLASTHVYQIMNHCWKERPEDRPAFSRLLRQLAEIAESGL
CDK4, sequence (P11802 whole entry): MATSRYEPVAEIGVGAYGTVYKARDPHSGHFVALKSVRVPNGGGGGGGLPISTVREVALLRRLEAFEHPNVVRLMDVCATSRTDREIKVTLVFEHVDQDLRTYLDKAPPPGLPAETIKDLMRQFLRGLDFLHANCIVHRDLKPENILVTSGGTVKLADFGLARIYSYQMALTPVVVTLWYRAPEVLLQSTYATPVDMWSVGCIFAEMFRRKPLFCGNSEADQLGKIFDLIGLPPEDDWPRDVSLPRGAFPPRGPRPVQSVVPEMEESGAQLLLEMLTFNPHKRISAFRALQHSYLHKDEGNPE
WNK4, sequence (Q96J92 whole entry): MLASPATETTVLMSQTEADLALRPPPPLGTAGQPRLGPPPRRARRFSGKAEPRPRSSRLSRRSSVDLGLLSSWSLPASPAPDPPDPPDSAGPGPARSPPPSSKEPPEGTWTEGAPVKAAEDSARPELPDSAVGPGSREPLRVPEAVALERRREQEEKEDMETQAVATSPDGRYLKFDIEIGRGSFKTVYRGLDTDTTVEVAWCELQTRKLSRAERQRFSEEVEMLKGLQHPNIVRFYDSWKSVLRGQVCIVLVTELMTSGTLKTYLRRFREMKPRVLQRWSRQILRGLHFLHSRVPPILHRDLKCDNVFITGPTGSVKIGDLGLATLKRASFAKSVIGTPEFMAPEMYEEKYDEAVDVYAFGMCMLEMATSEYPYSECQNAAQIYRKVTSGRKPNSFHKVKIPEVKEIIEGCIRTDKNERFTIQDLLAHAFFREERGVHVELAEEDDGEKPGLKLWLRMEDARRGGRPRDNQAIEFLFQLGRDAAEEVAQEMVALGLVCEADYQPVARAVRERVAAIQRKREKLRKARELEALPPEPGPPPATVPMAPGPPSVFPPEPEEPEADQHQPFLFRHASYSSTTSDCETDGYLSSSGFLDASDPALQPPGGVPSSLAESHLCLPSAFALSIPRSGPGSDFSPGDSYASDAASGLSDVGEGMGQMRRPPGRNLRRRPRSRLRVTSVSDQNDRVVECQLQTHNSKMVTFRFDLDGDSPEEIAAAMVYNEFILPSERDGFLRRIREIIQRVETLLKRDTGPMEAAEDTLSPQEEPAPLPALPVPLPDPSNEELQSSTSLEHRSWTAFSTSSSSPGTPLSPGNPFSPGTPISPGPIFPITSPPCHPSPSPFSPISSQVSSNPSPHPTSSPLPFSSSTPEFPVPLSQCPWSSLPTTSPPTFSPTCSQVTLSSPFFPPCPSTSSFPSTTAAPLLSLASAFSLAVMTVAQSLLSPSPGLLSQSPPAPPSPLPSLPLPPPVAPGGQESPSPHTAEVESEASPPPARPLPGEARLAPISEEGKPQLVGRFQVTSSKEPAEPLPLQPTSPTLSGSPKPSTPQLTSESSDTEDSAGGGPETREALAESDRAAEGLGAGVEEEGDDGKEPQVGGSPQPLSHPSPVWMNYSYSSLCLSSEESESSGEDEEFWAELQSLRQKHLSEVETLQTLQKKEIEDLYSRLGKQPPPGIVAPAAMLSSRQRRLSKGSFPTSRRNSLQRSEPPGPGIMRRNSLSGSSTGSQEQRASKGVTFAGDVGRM
EGFR(G719S), sequence (P00533 whole entry G719S): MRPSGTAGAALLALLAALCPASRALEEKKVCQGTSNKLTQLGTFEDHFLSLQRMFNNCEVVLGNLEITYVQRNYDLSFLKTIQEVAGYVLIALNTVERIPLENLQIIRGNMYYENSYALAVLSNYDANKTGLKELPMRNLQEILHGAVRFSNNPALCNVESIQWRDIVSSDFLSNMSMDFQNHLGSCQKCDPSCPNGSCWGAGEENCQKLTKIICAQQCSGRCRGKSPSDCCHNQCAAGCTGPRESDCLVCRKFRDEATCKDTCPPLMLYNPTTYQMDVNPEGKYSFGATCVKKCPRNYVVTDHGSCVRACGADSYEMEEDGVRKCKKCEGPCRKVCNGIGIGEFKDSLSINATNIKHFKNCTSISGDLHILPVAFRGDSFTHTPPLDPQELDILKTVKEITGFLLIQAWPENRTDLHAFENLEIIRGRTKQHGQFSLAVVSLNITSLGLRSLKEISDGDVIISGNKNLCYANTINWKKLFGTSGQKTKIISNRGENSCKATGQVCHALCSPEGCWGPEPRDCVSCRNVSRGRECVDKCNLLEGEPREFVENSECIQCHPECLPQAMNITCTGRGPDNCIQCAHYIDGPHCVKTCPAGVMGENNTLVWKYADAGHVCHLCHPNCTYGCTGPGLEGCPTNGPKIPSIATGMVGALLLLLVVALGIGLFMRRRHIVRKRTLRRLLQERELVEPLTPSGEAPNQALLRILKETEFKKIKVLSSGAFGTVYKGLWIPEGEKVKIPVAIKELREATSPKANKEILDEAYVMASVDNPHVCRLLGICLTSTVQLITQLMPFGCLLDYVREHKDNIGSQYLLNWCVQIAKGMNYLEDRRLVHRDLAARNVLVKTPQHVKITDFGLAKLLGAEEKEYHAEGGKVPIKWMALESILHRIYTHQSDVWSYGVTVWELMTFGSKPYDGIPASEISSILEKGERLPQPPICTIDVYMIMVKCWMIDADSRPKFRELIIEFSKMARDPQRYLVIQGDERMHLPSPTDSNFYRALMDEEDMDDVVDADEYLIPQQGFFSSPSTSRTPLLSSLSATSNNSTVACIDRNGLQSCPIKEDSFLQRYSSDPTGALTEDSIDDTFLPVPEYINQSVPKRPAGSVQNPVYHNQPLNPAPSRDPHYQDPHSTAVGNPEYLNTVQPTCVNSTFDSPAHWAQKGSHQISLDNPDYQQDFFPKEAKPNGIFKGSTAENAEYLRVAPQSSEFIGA
FYN, sequence (P06241 whole entry): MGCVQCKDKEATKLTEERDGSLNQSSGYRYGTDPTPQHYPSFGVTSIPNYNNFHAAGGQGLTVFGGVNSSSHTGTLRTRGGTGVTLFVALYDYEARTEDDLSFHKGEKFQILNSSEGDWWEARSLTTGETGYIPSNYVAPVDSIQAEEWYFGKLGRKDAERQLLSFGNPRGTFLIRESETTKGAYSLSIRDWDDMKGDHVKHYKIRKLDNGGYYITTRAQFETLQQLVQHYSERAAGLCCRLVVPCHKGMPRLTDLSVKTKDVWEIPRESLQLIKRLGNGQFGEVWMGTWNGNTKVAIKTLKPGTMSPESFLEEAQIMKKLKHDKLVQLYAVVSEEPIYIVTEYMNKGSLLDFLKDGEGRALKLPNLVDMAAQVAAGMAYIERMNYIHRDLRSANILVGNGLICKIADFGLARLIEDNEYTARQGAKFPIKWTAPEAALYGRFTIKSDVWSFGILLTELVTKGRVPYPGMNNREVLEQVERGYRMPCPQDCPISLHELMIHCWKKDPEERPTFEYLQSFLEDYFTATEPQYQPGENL

COc1cc2c(cn1)N(C)C(=O)[C@@H](NC(=O)c1nc3n(n1)[C@H](c1ccccc1)CC3)CC2 [GNE684, (S)-N-((S)-7-methoxy-1-methyl-2-oxo-2,3,4,5-tetrahydro-1H-pyrido[3,4-b]azepin-3-yl)-5-phenyl-6,7-dihydro-5H-pyrrolo[1,2-b][1,2,4]triazole-2-carboxamide] was tested, and the remaining binding at 10 µM [1] was 100%, the remaining binding at 10 µM [2] was 90% and the remaining binding at 10 µM [3] was 90%. For the same compound, the remaining binding at 10 µM [4] was 76%, the remaining binding at 10 µM [5] was 91% and the remaining binding at 10 µM [6] was 100%. The remaining binding at 10 µM [7] was 89%, the remaining binding at 10 µM [8] was 100% and the remaining binding at 10 µM [9] was 96%. For the same compound, the remaining binding at 10 µM [10] was 97%, the remaining binding at 10 µM [11] was 100% and the remaining binding at 10 µM [12] was 83%. For the same compound, the remaining binding at 10 µM [13] was 77%, the remaining binding at 10 µM [14] was 100% and the remaining binding at 10 µM [15] was 84%. It also gave a remaining binding at 10 µM [16] of 60%, a remaining binding at 10 µM [17] of 83% and a remaining binding at 10 µM [18] of 100%. The remaining binding at 10 µM [19] was 92%, the remaining binding at 10 µM [20] was 100% and the remaining binding at 10 µM [21] was 92%.

— article PMC7206119, “RIP1 inhibition blocks inflammatory diseases but not tumor growth or metastases” (Cell Death and Differentiation, 2019)
